Experimental data taken from the NIST ThermoML archive (doi:10.1016/j.jct.2019.03.014).

Experiments:
[1] = xn = mol fraction of the nth substance listed; settings: Ring tensiometer
[2] = Ring tensiometer

OCC(O)CO [glycerol] + CCCO
surface tension liquid-gas [mN/m], [1]
Settings | x2 = 0 | x2 = 0.1 | x2 = 0.2 | x2 = 0.3 | x2 = 0.4 | x2 = 0.5 | x2 = 0.6 | x2 = 0.7 | x2 = 0.8 | x2 = 0.9
293.2 K | 63.1 | 41.8 | 33.4 | 30.1 | 28.3 | 27.3 | 26.5 | 26 | 25.3 | 24.7
303.2 K | 62.4 | 41.5 | 33.1 | 29.7 | 27.9 | 26.9 | 26.1 | 25.5 | 24.8 | 24.1
313.2 K | 62 | 41.2 | 32.8 | 29.3 | 27.7 | 26.4 | 25.7 | 25 | 24.2 | 23.3
323.2 K | 61.1 | 40.9 | 32.5 | 28.9 | 27.2 | 26 | 25.3 | 24.5 | 23.6 | 22.5
333.2 K | 60.5 | 40.5 | 32.2 | 28.5 | 26.6 | 25.6 | 25 | 24 | 23 | 21.6

OCC(O)CO [glycerol] + CCO
surface tension liquid-gas [mN/m], [1]
Settings | x2 = 0 | x2 = 0.1 | x2 = 0.2 | x2 = 0.3 | x2 = 0.4 | x2 = 0.5 | x2 = 0.6 | x2 = 0.7 | x2 = 0.8 | x2 = 0.9
293.2 K | 63.1 | 52.9 | 41.7 | 36.1 | 31.9 | 29 | 27.5 | 26.2 | 24.9 | 23.7
303.2 K | 62.4 | 52.4 | 41.4 | 35.9 | 31.6 | 28.5 | 27.1 | 25.4 | 24.2 | 23.2
313.2 K | 62 | 52 | 41.1 | 35.7 | 31.2 | 27.9 | 26.7 | 24.5 | 23.5 | 22.6
323.2 K | 61.1 | 51.5 | 40.7 | 35.4 | 30.9 | 27.7 | 26.3 | 23.6 | 22.8 | 22
333.2 K | 60.5 | 51.1 | 40.5 | 35 | 30.6 | 27.2 | 25.9 | 22.7 | 22.1 | 21.2

CCCO [propan-1-ol]
[2]
Settings | surface tension liquid-gas [mN/m]
293.2 K | 23.7
303.2 K | 22.9
313.2 K | 22.1
323.2 K | 21.3
333.2 K | 20.6

CCCO [propan-1-ol] + OCC(O)CO
[1], x1 = 1
Settings | surface tension liquid-gas [mN/m]
293.2 K | 23.7
303.2 K | 22.9
313.2 K | 22.1
323.2 K | 21.3
333.2 K | 20.6

CC(C)O [propan-2-ol]
[2]
Settings | surface tension liquid-gas [mN/m]
293.2 K | 21.4
303.2 K | 20.7
313.2 K | 19.7
323.2 K | 18.7
333.2 K | 17.6

CC(C)O [propan-2-ol] + OCC(O)CO
[1], x1 = 1
Settings | surface tension liquid-gas [mN/m]
293.2 K | 21.4
303.2 K | 20.7
313.2 K | 19.7
323.2 K | 18.7
333.2 K | 17.6
